Patent publication US20100273772A1, “Bisaryl Alkynylamides as Negative Allosteric Modulators of Metabotropic Glutamate Receptor 5 (MGLUR5)” (Wyeth LLC, priority 2009, published 2010)
pIC50, pKi: −log10 of the molar value.

Key:
[1] = molecular target: T1, rat mGluR5 receptor (Rattus norvegicus, UniProt P31424); experiment: [3H]-MPEP binding HEK-293 cell membranes expressing a rat mGluR5 receptor; details: displacement of 4 nM [3H]-MPEP, HEK-293 cell membranes expressing rat mGluR5, 60 minute at room temperature; read-out: mGluR5 Ligand Binding DR Ki
T1 construct: expressed in transfected cells; host or cells: HEK-293
T1 sequence (P31424 21-1203): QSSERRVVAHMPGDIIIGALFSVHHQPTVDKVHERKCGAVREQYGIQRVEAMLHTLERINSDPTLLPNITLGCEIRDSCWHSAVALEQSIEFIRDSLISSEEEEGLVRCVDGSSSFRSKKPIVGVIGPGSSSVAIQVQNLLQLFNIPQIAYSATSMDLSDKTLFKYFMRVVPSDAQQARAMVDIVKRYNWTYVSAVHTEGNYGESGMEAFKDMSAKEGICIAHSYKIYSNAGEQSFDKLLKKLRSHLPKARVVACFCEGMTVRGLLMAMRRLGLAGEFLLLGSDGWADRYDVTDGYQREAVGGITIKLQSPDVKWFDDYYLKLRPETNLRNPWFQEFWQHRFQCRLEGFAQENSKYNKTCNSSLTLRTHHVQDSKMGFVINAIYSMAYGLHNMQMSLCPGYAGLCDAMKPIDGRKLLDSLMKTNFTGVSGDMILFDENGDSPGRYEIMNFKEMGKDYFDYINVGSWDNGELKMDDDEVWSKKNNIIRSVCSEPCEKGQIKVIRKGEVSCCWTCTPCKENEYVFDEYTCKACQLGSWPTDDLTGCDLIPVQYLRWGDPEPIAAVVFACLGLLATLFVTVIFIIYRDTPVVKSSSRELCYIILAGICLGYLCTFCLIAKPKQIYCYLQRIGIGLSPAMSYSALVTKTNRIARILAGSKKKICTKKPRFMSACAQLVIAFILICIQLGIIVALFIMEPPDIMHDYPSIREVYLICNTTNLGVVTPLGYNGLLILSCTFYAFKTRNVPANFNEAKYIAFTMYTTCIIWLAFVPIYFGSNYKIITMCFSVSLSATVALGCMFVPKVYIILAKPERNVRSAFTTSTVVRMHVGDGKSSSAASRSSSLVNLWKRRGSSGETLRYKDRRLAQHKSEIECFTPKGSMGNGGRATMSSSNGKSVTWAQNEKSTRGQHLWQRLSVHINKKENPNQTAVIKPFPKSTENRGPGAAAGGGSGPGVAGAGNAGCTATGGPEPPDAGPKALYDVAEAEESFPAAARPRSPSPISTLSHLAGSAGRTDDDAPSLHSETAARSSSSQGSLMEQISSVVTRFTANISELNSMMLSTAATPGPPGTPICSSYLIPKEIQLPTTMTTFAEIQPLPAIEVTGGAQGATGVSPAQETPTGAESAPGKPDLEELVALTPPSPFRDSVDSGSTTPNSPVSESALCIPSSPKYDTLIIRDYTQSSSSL
Method: TITLE: [^3H]-MPEP binding HEK-293 cell membranes expressing a rat mGluR5 receptor. PURPOSE: To identify high affinity compounds at the rat mGluR5 receptor based on their ability to displace the mGluR5 negative allosteric modulator, MPEP.
mGluR5 expressing HEK-293 cells are scraped off the plate, transferred to centrifuge tubes, and washed twice by centrifugation (2000 rpm for 10 min., 4° C.) in buffer (50 mM Tris pH 7.5). The resulting pellets are aliquoted and placed at −80° C. On the day of assay, the cells are thawed on ice, and resuspended in buffer. The binding assay is performed in a 96 well microtiter plate in a total volume of 250 μL. Non-specific binding is determined in the presence of 10 μM MPEP. Binding reaction includes a final radioligand [^3H]-MPEP concentration of 4 nM and 12-25 ug membrane protein per well. Following a 60 minute incubation at room temperature, the reaction is terminated by the addition of ice cold buffer and rapid filtration through a GF/B filter presoaked for 30 minutes in 0.5% PEI. Compounds are initially tested in a single point assay to determine percent inhibition at 10 μM. Subsequently, Ki values are determined for compounds defined to be active.
% inhibition and Ki values generated by GraphPad Prism and Excel Fit. IC50 values are calculated using GraphPad by fitting to a 1 or 2 site-binding model. Ki values are calculated from the apparent IC50 values using the Cheng-Prussof equation:
(§1) where [L]=concentration of free radioligand and Kd=dissociation constant of radioligand for the receptor. TITLE: Identification of metabotropic glutamate receptor 5 antagonists using a stable, sensitive fluorescence-based screening system PURPOSE: The aim of the research presented here was to develop a robust functional assay to measure changes in intracellular calcium, with the goal of identifying potent mGluR5 antagonists.

[2] = molecular target: T2, metabotropic glutamate receptor 5 (Rattus norvegicus, UniProt P31424); experiment: FLIPR Calcium 3 fluorescence-based functional assay of intracellular calcium, mGluR5 antagonist activity; assay type: cell-based; details: inhibition of glutamate (EC90, ~50 uM) stimulated calcium levels, mGluR5 HEK-293 cells; read-out: mGluR5 FLIPR MP Antagonist DR IC50
T2 construct: expressed in transfected cells; host or cells: HEK-293
T2 sequence (P31424 21-1203): as above
Excerpt: as §1
The FLIPR Calcium 3 Assay Kit is designed to work with many cell types, both adherent and non-adherent. Optimal cell conditions for the FLIPR Calcium 3 Assay Kit require the creation of a confluent cell monolayer before placing the plates in FLIPR or FlexStation. In general, we start with 50,000 mGluR5 HEK-293 cells/well for a 96-well plate. For adherent cells, seeding cells overnight with a plating volume of 100 μL/well worked for 96-well plates.
Remove cell plates from the incubator. Remove the supernatant medium. Add 180 ul of Loading Buffer to each well (for 96-well plates). HBSS buffer component B) pipette 100 mL of 10× Hank's Balanced Salt Solution and 20 mL of 1M Hepes buffer
Incubate cell plates for 1 hour at 37° C. and then keep the plates at room temperature until used.
After incubation, transfer the plates directly to FLIPR and begin the calcium assay as described in the FLIPR system manual. For a signal test, a starting average count of ˜10,000 is recommended. Recommended experimental setup parameters are as follows. Faster addition speeds can lead to better mixing of compounds and lower signal variance across the plate.
Test or reference compound is added to the 96-well plate (manually). […] Relative Fluorescence Units (RFUs) are recorded over a given time period (stated above) depending on the platform system used.
For antagonists, results are expressed as % inhibition of glutamate stimulated Calcium levels. IC50 values were calculated by Prism GraphPad using a 4-parameter logistic equation. IC50 values are calculated using GraphPad by fitting to a 1 site-model.

Row | SMILES | pKi [1] | pIC50 [2]
1 | CCOc1ccc(C(=O)N2CCc3c(Cl)cccc3C2)cc1C#Cc1ccccn1 [Example 77, 5-chloro-2-[4-ethoxy-3-(pyridin-2-ylethynyl)benzoyl]-1,2,3,4-tetrahydroisoquinoline] | 9.00 | 7.39
2 | COc1ccc(C(=O)N2CCc3cccnc3C2)cc1C#Cc1ccccn1 [Example 50, 7-{[4-methoxy-3-(pyridin-2-ylethynyl)phenyl]carbonyl}-5,6,7,8-tetrahydro-1,7-naphthyridine] | 7.77 | 7.77
3 | COc1ccc(C(=O)N2CCc3oc(C)nc3C2)cc1C#Cc1ccccn1 [Example 47, 5-{[4-methoxy-3-(pyridin-2-ylethynyl)phenyl]carbonyl}-2-methyl-4,5,6,7-tetrahydro[1,3]oxazolo[4,5-c]pyridine] | 7.52 | 7.48
4 | COc1ccc(C(=O)N2Cc3cnc(C)c(N)c3C2)cc1C#Cc1ccccn1 [Example 44, 2-[4-methoxy-3-(pyridin-2-ylethynyl)benzoyl]-6-methyl-2,3-dihydro-1H-pyrrolo[3,4-c]pyridin-7-amine] | 7.70 | 7.85
5 | COc1ccc(C(=O)N2CCc3ccccc3CC2)cc1C#Cc1ccccn1 [Example 57, 3-{[4-methoxy-3-(pyridin-2-ylethynyl)phenyl]carbonyl}-2,3,4,5-tetrahydro-1H-3-benzazepine] | 7.82 | 7.77
6 | COc1ccc(C(=O)N2CCc3c(cccc3C(F)(F)F)C2)cc1C#Cc1ccccn1 [Example 4, 2-[4-methoxy-3-(pyridin-2-ylethynyl)benzoyl]-5-(trifluoromethyl)-1,2,3,4-tetrahydroisoquinoline] | 9.40 | 6.87
7 | CCOc1ccc(C(=O)N2CCc3ccc(Cl)cc3C2)cc1C#Cc1ccccn1 [Example 76, 7-chloro-2-[4-ethoxy-3-(pyridin-2-ylethynyl)benzoyl]-1,2,3,4-tetrahydroisoquinoline] | 9.00 | 7.38
8 | COc1ccc(C(=O)N2Cc3cccnc3C2)cc1C#Cc1ccccn1 [Example 54, 6-{[4-methoxy-3-(pyridin-2-ylethynyl)phenyl]carbonyl}-6,7-dihydro-5H-pyrrolo[3,4-b]pyridine] | 7.59 | 8.10
9 | Cc1nc2c(o1)CCN(C(=O)c1ccc(C)c(C#Cc3ccccn3)c1)C2 [Example 90, 2-methyl-5-{[4-methyl-3-(pyridin-2-ylethynyl)phenyl]carbonyl}-4,5,6,7-tetrahydro[1,3]oxazolo[4,5-c]pyridine] | 7.80 | 8.05
10 | COc1ccc(C(=O)N2Cc3cnc(C)cc3C2)cc1C#Cc1ccccn1 [Example 41, 2-[4-methoxy-3-(pyridin-2-ylethynyl)benzoyl]-6-methyl-2,3-dihydro-1H-pyrrolo[3,4-c]pyridine] | 7.59 | 7.92
11 | COc1ccc(C(=O)N2CCc3ccc(Cl)cc3C2)cc1C#Cc1ccccn1 [Example 8, 7-chloro-2-[4-methoxy-3-(pyridin-2-ylethynyl)benzoyl]-1,2,3,4-tetrahydroisoquinoline] | 9.00 | 7.80
12 | COc1ccc(C(=O)N2CCc3[nH]ncc3C2)cc1C#Cc1ccccn1 [Example 53, 5-{[4-methoxy-3-(pyridin-2-ylethynyl)phenyl]carbonyl}-4,5,6,7-tetrahydro-1H-pyrazolo[4,3-c]pyridine] | 7.57 | 8.40
13 | O=C(c1ccc(Cl)c(C#Cc2ccccn2)c1)N1CCc2cccnc2C1 [Example 62, 7-{[4-chloro-3-(pyridin-2-ylethynyl)phenyl]carbonyl}-5,6,7,8-tetrahydro-1,7-naphthyridine] | 8.30 | 8.05
14 | COc1ccc(C(=O)N2CCc3ccc(C#N)cc3C2)cc1C#Cc1ccccn1 [Example 11, 2-[4-methoxy-3-(pyridin-2-ylethynyl)benzoyl]-1,2,3,4-tetrahydroisoquinoline-7-carbonitrile] | 7.96 | 6.89
15 | COc1ccc(C(=O)N2Cc3ccc(Br)cc3C2)cc1C#Cc1ccccn1 [Example 33, 5-bromo-2-[4-methoxy-3-(pyridin-2-ylethynyl)benzoyl]isoindoline] | 8.70 | 6.76
16 | O=C(c1ccc(C(F)(F)F)c(C#Cc2ccccn2)c1)N1CCc2c(Cl)cccc2C1 [Example 95, 5-Chloro-2-{[3-(pyridin-2-ylethynyl)-4-(trifluoromethyl)phenyl]carbonyl}-1,2,3,4-tetrahydroisoquinoline] | 8.40 | 6.79
17 | COc1ccc(C(=O)N2Cc3cnc(C)c(C)c3C2)cc1C#Cc1ccccn1 [Example 42, 2-[4-methoxy-3-(pyridin-2-ylethynyl)benzoyl]-6,7-dimethyl-2,3-dihydro-1H-pyrrolo[3,4-c]pyridine] | 7.70 | 7.55
18 | COc1ccc(C(=O)N2CCc3ncc(Cl)cc3C2)cc1C#Cc1ccccn1 [Example 51, 3-chloro-6-{[4-methoxy-3-(pyridin-2-ylethynyl)phenyl]carbonyl}-5,6,7,8-tetrahydro-1,6-naphthyridine] | 7.89 | 7.52
19 | O=C(c1ccc(Cl)c(C#Cc2ccccn2)c1)N1CCc2c(Cl)cccc2C1 [Example 69, 5-chloro-2-{[4-chloro-3-(pyridin-2-ylethynyl)phenyl]carbonyl}-1,2,3,4-tetrahydroisoquinoline] | 10.00 | 6.87
20 | COc1ccc(C(=O)N2CCc3ncc(C(F)(F)F)cc3C2)cc1C#Cc1ccccn1 [Example 52, 6-{[4-methoxy-3-(pyridin-2-ylethynyl)phenyl]carbonyl}-3-(trifluoromethyl)-5,6,7,8-tetrahydro-1,6-naphthyridine] | 7.54 | 7.31
21 | Cc1ccc(C(=O)N2Cc3ccccc3C2)cc1C#Cc1ccccn1 [Example 81, 2-[4-Methyl-3-(pyridin-2-ylethynyl)benzoyl]isoindoline] | 9.00 | 7.59
22 | CCOc1ccc(C(=O)N2Cc3ccccc3C2)cc1C#Cc1ccccn1 [Example 78, 2-[4-ethoxy-3-(pyridin-2-ylethynyl)benzoyl]isoindoline] | 8.30 | 7.92
23 | COc1ccc(C(=O)N2CCc3c(F)ccc(F)c3C2)cc1C#Cc1ccccn1 [Example 6, 5,8-difluoro-2-[4-methoxy-3-(pyridin-2-ylethynyl)benzoyl]-1,2,3,4-tetrahydroisoquinoline] | 8.70 | 7.28
24 | O=C(c1ccc(Cl)c(C#Cc2ccccn2)c1)N1CCc2[nH]cnc2C1 [Example 67, 5-{[4-chloro-3-(pyridin-2-ylethynyl)phenyl]carbonyl}-4,5,6,7-tetrahydro-1H-imidazo[4,5-c]pyridine] | 7.80 | 7.57
25 | O=C(c1ccc(Cl)c(C#Cc2ccccn2)c1)N1CCc2[nH]ncc2C1 [Example 66, 5-{[4-chloro-3-(pyridin-2-ylethynyl)phenyl]carbonyl}-4,5,6,7-tetrahydro-1H-pyrazolo[4,3-c]pyridine] | 8.40 | 7.96
26 | COc1ccc(C(=O)N2Cc3cccc(Cl)c3C2)cc1C#Cc1ccccn1 [Example 38, 4-chloro-2-[4-methoxy-3-(pyridin-2-ylethynyl)benzoyl]isoindoline] | 8.70 | 7.29
27 | COc1ccc(C(=O)N2CCc3sccc3C2)cc1C#Cc1ccccn1 [Example 13, 5-[4-methoxy-3-(pyridin-2-ylethynyl)benzoyl]-4,5,6,7-tetrahydrothieno[3,2-c]pyridine] | 8.30 | 7.36
